In article PMC6149722, “Comparison of the Binding of Reversible Inhibitors to Human Butyrylcholinesterase and Acetylcholinesterase: A Crystallographic, Kinetic and Calorimetric Study” (Molecules : A Journal of Synthetic Chemistry and Natural …, 2017):
Where a name gives a salt, the structure may show the parent alone. Read-outs that look alike come from different tables or passages of the source.

Key:
[1] = target: T1, BChE (Homo sapiens, UniProt P06276); assay: Inhibition of second-order substrate hydrolysis by BChE (inhibition constants KI); type: biochemical
T1 construct: Purified human plasma wild-type BChE was a gift from Dr. Oksana Lockridge; tissue gift from Dr. Oksana Lockridge (University of Nebraska Medical Center); host or cells: human plasma
Description: To further compare the binding sites of inhibitors with AChE and BChE, we employed an inhibitor competition assay. This assay is designed to detect any ternary complex formed when two inhibitors are added to AChE or BChE simultaneously. The assay is conducted with a substrate like acetylthiocholine whose second-order hydrolysis at low substrate concentrations is diffusion controlled and thus is inhibited by ligands that bind to either the A-site or the P-site (see Figure 7A below). Individual inhibition constants KI were obtained by plotting the ratios of the hydrolysis rate constant kE at various concentrations of one inhibitor (kE + I) to kE in the absence of inhibitor (kE [I] = 0) against inhibitor concentration. Inhibitor competition was then assessed by determining ratios of kE at a fixed concentration ([I1]) of inhibitor 1 and various concentrations ([I2]) of inhibitor 2 (kE + I2) to kE at the same [I1] in the absence of [I2] (kE [I2] = 0) and plotting these ratios against [I2]. These plots were analyzed with Equation (5) (described in the Materials and Methods Section 4.4) to obtain the relative affinity of I1 in its binary complex with enzyme E to I1 in a ternary complex with I2 and E (K12/K1). […].
For enzyme kinetics experiments, purified recombinant hAChE (~1500 units as determined by the supplier) was purchased from Sigma Aldrich (St. Louis, MO, USA). The AChE concentration was calculated using the assumption of 450 units/nmol (4.8 ∆A412/(min × nM)). Purified human plasma wild-type BChE was a gift from Dr. Oksana Lockridge (University of Nebraska Medical Center, Omaha, NE, USA). BChE concentration was calculated assuming 62.5 unit/nmol (0.94 ∆A412/(min × nM)). As defined previously, […] is the amount of BChE that gives 1.0 ∆A/min in the presence of 1.6 × 10^−4 M butyrylthiocholine in a 1.5 mL assay.
Inhibition constants for inhibitors of BChE were determined using a modification of a previously described method. Briefly, varying amounts of inhibitor (in 50 μL of 50% CH3CN(aq)) were added to 1.60 mL of buffer (0.09 M phosphate buffer, pH 8.0), 5,5′-dithio-bis (2-nitrobenzoic acid) (0.32 mM), and butyrylthiocholine substrate (5 μM) in a quartz cuvette of 1 cm path length, and the mixture was zeroed at 412 nm. The reaction was initiated by the addition of 50 μL of BChE (to 0.68 nM) in 0.1% aqueous gelatin. Assays were conducted at 23 °C. The absorbance (A), reflecting the cumulative hydrolysis of the substrate, was recorded every 5–20 s using an Ultraspec 2100 pro ultra violet (UV)-visible spectrophotometer (Fisher Scientific, Toronto, ON, Canada) equipped with Swift II application software. […]
In Equation (1), A412 is absorbance, [E]tot is the total enzyme concentration, kobs = kE[E]tot, and ΔA412 = A412(final) − A412(t = 0). […]

[2] = target: T1, BChE; settings: in the presence of thioflavin T; cited from earlier work
[3] = tested on: hBChE; assay: biochemical; type: binding; settings: ITC KD, hAChE vs hBChE
[4] = target: hBChE (Homo sapiens, UniProt P06276, N45Q/N483Q/N509Q/N514Q); assay: biochemical; type: binding; settings: for n (±SD), binding stoichiometry / ΔG (±SD), Gibbs free energy of binding / ΔH (±SD), binding heat: hBChE, ITC, 25 °C, pH 7.4
[5] = target: T1, BChE; design: method as in PMID 22901043; settings: cited from earlier work
[6] = tested on: AChE; settings: cited from earlier work
[7] = target: T2, hAChE (Homo sapiens, UniProt P22303); assay: biochemical; type: binding; settings: for n (±SD), binding stoichiometry / ΔG (±SD), Gibbs free energy of binding / ΔH (±SD), binding heat: hAChE, ITC, 25 °C, pH 8.0
[8] = tested on: hBChE; settings: specificity for BChE; cited from earlier work
[9] = target: T2, hAChE; settings: read-out: AChE KI, recalculated from data obtained in ref 23; cited from earlier work
[10] = target: T1, BChE; type: biochemical; settings: binding site competition ratio of each inhibitor (I1) in the presence of decamethonium (I2), >> 1 denotes competition at the same site
Description: This assay is designed to detect any ternary complex formed when two inhibitors are added to AChE or BChE simultaneously [15, 23, 34, 41, 42, 43]. The assay is conducted with a substrate like acetylthiocholine whose second-order hydrolysis at low substrate concentrations is diffusion controlled and thus is inhibited by ligands that bind to either the A-site or the P-site [15] […] Inhibitor competition was then assessed by determining ratios of kE at a fixed concentration ([I1]) of inhibitor 1 and various concentrations ([I2]) of inhibitor 2 (kE + I2) to kE at the same [I1] in the absence of [I2] (kE [I2] = 0) and plotting these ratios against [I2]. These plots were analyzed with Equation (5) (described in the Materials and Methods Section 4.4) to obtain the relative affinity of I1 in its binary complex with enzyme E to I1 in a ternary complex with I2 and E (K12/K1).
Determining rates of substrate hydrolysis in the presence of two inhibitors provides information that indicates whether these inhibitors are interacting with the same or different enzyme binding sites [15]. […]
In this equation, K1, K2, and K12 are the equilibrium dissociation constants for I1 with E, I2 with E, and I1 with the E I2 complex, respectively. Individual inhibition constants (e.g., K2) could be determined from Equation (5) with [I1] fixed at 0. […]

[11] = tested on: BChE; settings: cited from earlier work
[12] = tested on: AChE; settings: cited from earlier work; remark: listed apart in the source

hBChE (Homo sapiens, UniProt P06276, N45Q/N483Q/N509Q/N514Q), sequence (P06276 29-557 N45Q/N483Q/N509Q/N514Q): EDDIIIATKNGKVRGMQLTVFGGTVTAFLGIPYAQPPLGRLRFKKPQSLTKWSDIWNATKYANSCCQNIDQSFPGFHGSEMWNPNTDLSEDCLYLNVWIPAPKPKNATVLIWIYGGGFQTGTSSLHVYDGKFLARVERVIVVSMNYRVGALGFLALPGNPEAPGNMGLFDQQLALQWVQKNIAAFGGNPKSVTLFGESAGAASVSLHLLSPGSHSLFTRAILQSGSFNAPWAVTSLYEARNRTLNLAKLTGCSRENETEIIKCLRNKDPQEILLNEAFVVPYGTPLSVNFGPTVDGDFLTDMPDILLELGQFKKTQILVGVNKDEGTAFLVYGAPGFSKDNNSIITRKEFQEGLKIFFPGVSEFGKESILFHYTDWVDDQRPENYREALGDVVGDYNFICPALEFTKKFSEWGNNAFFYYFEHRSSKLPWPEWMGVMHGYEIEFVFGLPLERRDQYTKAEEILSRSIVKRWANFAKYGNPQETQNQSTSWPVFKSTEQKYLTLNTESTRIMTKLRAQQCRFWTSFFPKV
T2 sequence (P22303 32-574): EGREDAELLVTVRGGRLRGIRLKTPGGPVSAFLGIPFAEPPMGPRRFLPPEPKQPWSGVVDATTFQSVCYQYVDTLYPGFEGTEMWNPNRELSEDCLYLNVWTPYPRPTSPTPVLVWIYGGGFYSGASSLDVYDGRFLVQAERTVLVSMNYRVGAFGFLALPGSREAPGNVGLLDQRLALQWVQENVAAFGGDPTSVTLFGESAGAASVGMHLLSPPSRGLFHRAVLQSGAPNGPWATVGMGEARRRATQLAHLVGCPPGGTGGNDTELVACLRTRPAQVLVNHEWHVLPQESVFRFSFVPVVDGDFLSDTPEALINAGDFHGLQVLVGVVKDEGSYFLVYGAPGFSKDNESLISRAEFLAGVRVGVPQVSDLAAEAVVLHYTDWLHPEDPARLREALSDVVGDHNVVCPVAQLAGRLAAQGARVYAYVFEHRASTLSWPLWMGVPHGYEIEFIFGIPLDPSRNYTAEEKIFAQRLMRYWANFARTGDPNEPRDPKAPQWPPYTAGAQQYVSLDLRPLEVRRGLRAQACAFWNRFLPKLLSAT
T1 sequence (P06276 29-602): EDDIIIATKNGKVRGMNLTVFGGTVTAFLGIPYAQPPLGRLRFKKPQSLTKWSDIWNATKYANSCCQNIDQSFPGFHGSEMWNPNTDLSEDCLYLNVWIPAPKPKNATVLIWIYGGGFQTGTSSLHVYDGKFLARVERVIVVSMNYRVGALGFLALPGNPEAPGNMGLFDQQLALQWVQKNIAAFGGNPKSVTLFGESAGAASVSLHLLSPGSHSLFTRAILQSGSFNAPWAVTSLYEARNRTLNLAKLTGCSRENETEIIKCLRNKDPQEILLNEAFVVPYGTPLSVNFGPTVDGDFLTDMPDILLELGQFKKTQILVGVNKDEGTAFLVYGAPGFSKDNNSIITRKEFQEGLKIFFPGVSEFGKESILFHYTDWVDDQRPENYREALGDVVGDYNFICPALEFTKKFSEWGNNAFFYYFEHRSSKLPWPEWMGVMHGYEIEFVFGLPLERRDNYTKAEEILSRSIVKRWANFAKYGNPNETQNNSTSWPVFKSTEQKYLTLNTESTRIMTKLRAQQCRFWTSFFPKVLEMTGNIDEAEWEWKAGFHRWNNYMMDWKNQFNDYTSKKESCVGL

SMILES | difference in KD values between AChE and BChE [3] | Kd [4] [nM] | n (±SD), binding stoichiometry [4] | ΔG (±SD), Gibbs free energy of binding [4] [kJ/mol] | ΔH (±SD), binding heat [4] [kJ/mol] | n (±SD), binding stoichiometry [7] | ΔG (±SD), Gibbs free energy of binding [7] [kJ/mol] | ΔH (±SD), binding heat [7] [kJ/mol] | IC50 [11] [nM] | other results
C[N+](C)(C)CCCCCCCCCC[N+](C)(C)C [Decamethonium, decamethonium bromide] |  |  |  |  |  |  |  |  |  | Ki [1]: 4.5 ± 0.2 µM
CC[N+](C)(C)c1cccc(O)c1 [Edrophonium, edrophonium chloride] | ~20 fold | 27200 ± 2400 | 0.9 ± 0.1 | -26.1 ± 0.3 | -12.6 ± 1.7 | 0.8 ± 0.3 | -33.6 ± 0.8 | -26.4 ± 7.9 |  | BChE K12/K1 competition class [2]: PC (intermediate ratios indicate partial competition (PC)); n (±SD), binding stoichiometry ([4]; listed as edrophonium): ~ 1; Ki ([5]; BChE, updated from data in ref 23): 49 ± 3 µM; Ki ([5]; read-out: BChE KI, hBChE, recalculated from data obtained in ref 23): 49 ± 3 µM; AChE K12/K1 ([6]; binding site competition ratio in the presence of thioflavin T, recalculated from data obtained in ref 23): 2.9 ± 0.2; AChE K12/K1 competition class ([6]; in the presence of thioflavin T): NC (A K12/K1 ratio of ~1 indicates no competition at binding sites (NC)); n (±SD), binding stoichiometry ([7]; listed as edrophonium): ~ 1
CCN(CC)C(C)CN1c2ccccc2Sc2ccccc21 (centres unmarked) [Ethopropazine, ethopropazine hydrochloride] | ~20 fold | 1100 ± 100 | 1.0 ± 0.1 | -34.1 ± 0.2 | -43.6 ± 6.4 |  |  |  |  | n (±SD), binding stoichiometry ([4]; listed as ethopropazine): ~ 1; difference in Ki between hAChE and hBChE [8]: 9000 fold
Cc1ccc2c(c1)sc(-c1ccc(N(C)C)cc1)[n+]2C [Thioflavin-T, ThT chloride] | about 7 fold | 2600 ± 500 | 2.2 ± 0.1 | -32.0 ± 0.6 | -11.4 ± 0.6 | 1 | -27.2 | -23.7 |  | Ki ([1]; BChE 0.68 nM, butyrylthiocholine 5 µM, second-order dependence on inhibitor concentration, read-out: KI (fitted with Equation (4))): 1.61 ± 0.11 µM; KII (fitted with Equation (4)) ([1]; BChE 0.68 nM, butyrylthiocholine 5 µM, second-order term): 5.84 ± 0.16 µM^2; KI12/KI1 (maximum for the affinity in the binary complex relative to that in the ternary complex) ([1]; BChE, two molecules of inhibitor, maximum reached when KI1 = KI2): 0.56 ± 0.04; Ki [9]: 3.9 ± 0.4 µM; Kd [7]: 17.7 µM; n (±SD), binding stoichiometry ([7]; listed as ThT): ~ 1; K12/K1 [10]: >200
NCCC1=CC2Cc3nc4cc(Cl)ccc4c(N)c3C(C1)C2 (centres unmarked) [huprine 19] |  |  |  |  |  |  |  |  | 900 | 
Nc1c2c(nc3cc(Cl)ccc13)C[C@H]1C=C(CCO)C[C@@H]2C1 [huprine W] |  |  |  |  |  |  |  |  | 1200 | IC50 [12]: 1.1 nM
